# Measurements: patent US12060347B2 (BRISTOL-MYERS SQUIBB COMPANY, priority 2016, dated 2024)
# Biological target: T1, human PAR4 (Homo sapiens, UniProt Q96RI0)
# T1 construct: expressed in transfected cells; host or cells: HEK293 PAR4 Clone 1.2A (BMS Arctic ID 383940)
# T1 sequence (Q96RI0 18-385): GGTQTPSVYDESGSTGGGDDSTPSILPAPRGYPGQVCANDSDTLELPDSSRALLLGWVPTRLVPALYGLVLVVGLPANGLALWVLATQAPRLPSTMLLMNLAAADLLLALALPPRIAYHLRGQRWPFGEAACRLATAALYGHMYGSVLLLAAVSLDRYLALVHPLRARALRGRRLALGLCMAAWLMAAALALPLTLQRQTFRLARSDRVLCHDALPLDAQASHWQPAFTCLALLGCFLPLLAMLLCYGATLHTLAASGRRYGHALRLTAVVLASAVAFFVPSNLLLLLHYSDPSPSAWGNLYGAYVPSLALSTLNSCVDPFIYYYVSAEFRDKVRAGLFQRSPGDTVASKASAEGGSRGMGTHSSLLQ
# Assay: PAR4 FLIPR assay: antagonism of agonist-peptide-induced calcium mobilization in PAR4-expressing HEK293 cells
# Assay type: cell-based
# Conditions: H-Ala-Phe(4-F)-[…]NH2-induced intracellular calcium mobilization, 11-point curves
row,SMILES,IC50
1,"COc1cnc2c(-c3nc4cc(F)c(O[C@@H](C)[C@@H](C)OC(=O)Nc5cccnc5)cc4s3)cc(Cl)cc2c1 [Example 788, (2R,3S)-3-((2-(6-chloro-3-methoxyquinolin-8-yl)-5-fluorobenzo[d]thiazol-6-yl)oxy)butan-2-yl pyridin-3-ylcarbamate]",3.1 nM
2,"COc1cnc2c(-c3nc4cc(F)c(O[C@@H](C)[C@@H](C)OC(=O)Nc5ccc(F)nc5)cc4s3)cc(Cl)cc2c1 [Example 789, (2R,3S)-3-((2-(6-chloro-3-methoxyquinolin-8-yl)-5-fluorobenzo[d]thiazol-6-yl)oxy)butan-2-yl (6-fluoropyridin-3-yl)carbamate]",2.4 nM
3,"COc1cnc2c(-c3nc4cc(F)c(O[C@@H](C)[C@@H](C)OC(=O)Nc5ccncc5)cc4s3)cc(Cl)cc2c1 [Example 790, (2R,3S)-3-((2-(6-chloro-3-methoxyquinolin-8-yl)-5-fluorobenzo[d]thiazol-6-yl)oxy)butan-2-yl pyridin-4-ylcarbamate]",4.4 nM
4,"COc1cnc2c(-c3nc4cc(F)c(O[C@@H](C)[C@@H](C)OC(=O)Nc5cnc(CO)nc5)nc4s3)cc(Cl)cc2c1 [Example 793, (2R,3S)-3-((2-(6-chloro-3-methoxyquinolin-8-yl)-6-fluorothiazolo[5,4-b]pyridin-5-yl)oxy)butan-2-yl (2-(hydroxymethyl)pyrimidin-5-yl)carbamate]",24 nM
5,"COc1cnc2c(-c3nc4cc(F)c(OC[C@@H](C)OC(=O)Nc5cnc(CO)nc5)nc4s3)cc(Cl)cc2c1 [Example 794, (R)-1-((2-(6-chloro-3-methoxyquinolin-8-yl)-6-fluorothiazolo[5,4-b]pyridin-5-yl)oxy)propan-2-yl (2-(hydroxymethyl)pyrimidin-5-yl)carbamate]",10 nM
6,"COc1cnc2c(-c3nc4c(Cl)c(F)c(O[C@@H](C)[C@@H](C)OC(=O)Nc5cnc(OCCO)nc5)cc4s3)cc(Cl)cc2c1 [Example 795, (2R,3S)-3-((4-chloro-2-(6-chloro-3-methoxyquinolin-8-yl)-5-fluorobenzo[d]thiazol-6-yl)oxy)butan-2-yl (2-(2-hydroxyethoxy)pyrimidin-5-yl)carbamate]",0.8 nM
7,"COc1cnc2c(-c3nc4c(Cl)c(F)c(O[C@@H](C)[C@@H](C)OC(=O)Nc5cnc(OC[C@@H](C)O)nc5)cc4s3)cc(Cl)cc2c1 [Example 796, (2R,3S)-3-((4-chloro-2-(6-chloro-3-methoxyquinolin-8-yl)-5-fluorobenzo[d]thiazol-6-yl)oxy)butan-2-yl (2-((R)-2-hydroxypropoxy)pyrimidin-5-yl)carbamate]",1.3 nM
8,"COc1cnc2c(-c3nc4c(Cl)c(F)c(O[C@@H](C)[C@@H](C)OC(=O)Nc5ccc(F)nc5)cc4s3)cc(Cl)cc2c1 [Example 797, (2R,3S)-3-((4-chloro-2-(6-chloro-3-methoxyquinolin-8-yl)-5-fluorobenzo[d]thiazol-6-yl)oxy)butan-2-yl (6-fluoropyridin-3-yl)carbamate]",3.1 nM
9,"COc1cnc2c(-c3nc4c(Cl)c(F)c(O[C@@H](C)[C@@H](C)OC(=O)Nc5ccncc5)cc4s3)cc(Cl)cc2c1 [Example 798, (2R,3S)-3-((4-chloro-2-(6-chloro-3-methoxyquinolin-8-yl)-5-fluorobenzo[d]thiazol-6-yl)oxy)butan-2-yl pyridin-4-ylcarbamate]",2.5 nM
10,"COc1cnc2c(-c3nc4c(Cl)c(F)c(O[C@@H](C)[C@@H](C)OC(=O)Nc5cccnc5)cc4s3)cc(Cl)cc2c1 [Example 799, (2R,3S)-3-((4-chloro-2-(6-chloro-3-methoxyquinolin-8-yl)-5-fluorobenzo[d]thiazol-6-yl)oxy)butan-2-yl pyridin-3-ylcarbamate]",2.9 nM
11,"COc1cnc2c(-c3nc4c(Cl)c(F)c(O[C@@H](C)[C@@H](C)OC(=O)Nc5cncc(C#N)c5)cc4s3)cc(Cl)cc2c1 [Example 802, (2R,3S)-3-((4-chloro-2-(6-chloro-3-methoxyquinolin-8-yl)-5-fluorobenzo[d]thiazol-6-yl)oxy)butan-2-yl (5-cyanopyridin-3-yl)carbamate]",2 nM
12,"COc1cncc(NC(=O)O[C@H](C)[C@H](C)Oc2cc3sc(-c4cc(Cl)cc5cc(OC)cnc45)nc3c(Cl)c2F)c1 [Example 803, (2R,3S)-3-((4-chloro-2-(6-chloro-3-methoxyquinolin-8-yl)-5-fluorobenzo[d]thiazol-6-yl)oxy)butan-2-yl (5-methoxypyridin-3-yl)carbamate]",3.5 nM

# Next, values leading:
row,IC50,SMILES
1,2.3 nM,"COc1cnc2c(-c3nc4cc(F)c(O[C@@H](C)[C@@H](C)OC(=O)Nc5cnc(C)nc5)nc4s3)cc(C)cc2c1 [Example 791, (2R,3S)-3-((6-fluoro-2-(3-methoxy-6-methylquinolin-8-yl)thiazolo[5,4-b]pyridin-5-yl)oxy)butan-2-yl (2-methylpyrimidin-5-yl)carbamate]"
2,11 nM,"COc1cnc2c(-c3nc4cc(F)c(O[C@@H](C)[C@@H](C)OC(=O)Nc5cnc(CO)nc5)nc4s3)cc(C)cc2c1 [Example 792, (2R,3S)-3-((6-fluoro-2-(3-methoxy-6-methylquinolin-8-yl)thiazolo[5,4-b]pyridin-5-yl)oxy)butan-2-yl (2-(hydroxymethyl)pyrimidin-5-yl)carbamate]"
3,2.5 nM,"COc1cnc2c(-c3nc4c(Cl)c(F)c(O[C@@H](C)[C@@H](C)OC(=O)Nc5cnc(C)c(C)c5)cc4s3)cc(Cl)cc2c1 [Example 800, (2R,3S)-3-((4-chloro-2-(6-chloro-3-methoxyquinolin-8-yl)-5-fluorobenzo[d]thiazol-6-yl)oxy)butan-2-yl (5,6-dimethylpyridin-3-yl)carbamate]"
4,2.6 nM,"COc1cnc2c(-c3nc4c(Cl)c(F)c(O[C@@H](C)[C@@H](C)OC(=O)Nc5ccc(OC)nc5)cc4s3)cc(Cl)cc2c1 [Example 801, (2R,3S)-3-((4-chloro-2-(6-chloro-3-methoxyquinolin-8-yl)-5-fluorobenzo[d]thiazol-6-yl)oxy)butan-2-yl (6-methoxypyridin-3-yl)carbamate]"
5,2.8 nM,"COc1cnc2c(-c3nc4c(Cl)c(F)c(O[C@@H](C)[C@@H](C)OC(=O)Nc5cncc(F)c5)cc4s3)cc(C)cc2c1 [Example 804, (2R,3S)-3-((4-chloro-5-fluoro-2-(3-methoxy-6-methylquinolin-8-yl)benzo[d]thiazol-6-yl)oxy)butan-2-yl (5-fluoropyridin-3-yl)carbamate]"
6,6.6 nM,"COc1cnc2c(-c3nc4c(C(O)C(C)(C)C)cc(F)cc4s3)cc(C)cc2n1 (stereo not shown) [Example 806, 1-(6-fluoro-2-(2-methoxy-7-methylquinoxalin-5-yl)benzo[d]thiazol-4-yl)-2,2-dimethylpropan-1-ol]"
7,2.6 nM,"COc1cnc2c(-c3nc4c(C(O)C(C)(C)C)cc(OC)nc4s3)cc(C)cc2n1 (stereo not shown) [Example 807, 1-(5-methoxy-2-(2-methoxy-7-methylquinoxalin-5-yl)thiazolo[5,4-b]pyridin-7-yl)-2,2-dimethylpropan-1-ol]"
8,2 nM,"COCc1cc(OC)cc2sc(-c3cc(C)cc4nc(OC)cnc34)nc12 [Example 808, 6-methoxy-2-(2-methoxy-7-methylquinoxalin-5-yl)-4-(methoxymethyl)benzo[d]thiazole]"
9,54 nM,"COc1cnc2c(-c3nc4cnccc4s3)cc(C)cc2n1 [Example 809, 2-(2-methoxy-7-methylquinoxalin-5-yl)thiazolo[4,5-c]pyridine]"
10,6.9 nM,"COc1cnc2c(-c3nc4cc(F)c(OCCOC(=O)Nc5cccnc5)nc4s3)cc(C)cc2n1 [Example 810, 2-((6-fluoro-2-(2-methoxy-7-methylquinoxalin-5-yl)thiazolo[5,4-b]pyridin-5-yl)oxy)ethyl pyridin-3-ylcarbamate]"
11,1.5 nM,"COc1cnc2c(-c3nc4cc(F)c(OCCOC(=O)Nc5cnc(F)c(C)c5)nc4s3)cc(C)cc2n1 [Example 811, 2-((6-fluoro-2-(2-methoxy-7-methylquinoxalin-5-yl)thiazolo[5,4-b]pyridin-5-yl)oxy) ethyl (6-fluoro-5-methylpyridin-3-yl)carbamate]"
12,7 nM,"COc1cnc2c(-c3nc4c(C)cc(OCCOC(=O)Nc5ccc(-c6cccs6)nc5)nc4s3)cc(C)cc2n1 [Example 812, 2-((2-(2-methoxy-7-methylquinoxalin-5-yl)-7-methylthiazolo[5,4-b]pyridin-5-yl)oxy) ethyl (6-(thiophen-2-yl)pyridin-3-yl)carbamate]"
13,1 nM,"CCOc1cnc2c(-c3nc4cc(F)c(OC[C@@H](C)OC(=O)Nc5cnc(C)nc5)nc4s3)cc(C)cc2n1 [Example 813, (R)-1-((2-(2-ethoxy-7-methylquinoxalin-5-yl)-6-fluorothiazolo[5,4-b]pyridin-5-yl)oxy)propan-2-yl (2-methylpyrimidin-5-yl)carbamate]"
14,7.2 nM,"CCOc1cnc2c(-c3nc4cc(F)c(OC[C@@H](C)OC(=O)Nc5cnc(OCCO)nc5)nc4s3)cc(C)cc2n1 [Example 814, (R)-1-((2-(2-ethoxy-7-methylquinoxalin-5-yl)-6-fluorothiazolo[5,4-b]pyridin-5-yl)oxy)propan-2-yl (2-(2-hydroxyethoxy)pyrimidin-5-yl)carbamate]"
15,6.4 nM,"CCOc1cnc2c(-c3nc4cc(F)c(OC[C@@H](C)OC(=O)Nc5cnc(OC[C@@H](C)O)nc5)nc4s3)cc(C)cc2n1 [Example 815, (R)-1-((2-(2-ethoxy-7-methylquinoxalin-5-yl)-6-fluorothiazolo[5,4-b]pyridin-5-yl)oxy) propan-2-yl (2-((R)-2-hydroxypropoxy)pyrimidin-5-yl)carbamate]"
16,10 nM,CCOc1cnc2c(-c3nc4cc(F)c(O[C@@H](C)[C@@H](C)OC(=O)Nc5cnc(CO)nc5)nc4s3)cc(C)cc2n1 [Example 816]
